# Biological target: T1, recombinant human FAAH (rhFAAH) (Homo sapiens, UniProt O00519)
# T1 construct: purchased Cayman Chemical (Ann Arbor, MI, USA)
# T1 sequence (O00519 1-579): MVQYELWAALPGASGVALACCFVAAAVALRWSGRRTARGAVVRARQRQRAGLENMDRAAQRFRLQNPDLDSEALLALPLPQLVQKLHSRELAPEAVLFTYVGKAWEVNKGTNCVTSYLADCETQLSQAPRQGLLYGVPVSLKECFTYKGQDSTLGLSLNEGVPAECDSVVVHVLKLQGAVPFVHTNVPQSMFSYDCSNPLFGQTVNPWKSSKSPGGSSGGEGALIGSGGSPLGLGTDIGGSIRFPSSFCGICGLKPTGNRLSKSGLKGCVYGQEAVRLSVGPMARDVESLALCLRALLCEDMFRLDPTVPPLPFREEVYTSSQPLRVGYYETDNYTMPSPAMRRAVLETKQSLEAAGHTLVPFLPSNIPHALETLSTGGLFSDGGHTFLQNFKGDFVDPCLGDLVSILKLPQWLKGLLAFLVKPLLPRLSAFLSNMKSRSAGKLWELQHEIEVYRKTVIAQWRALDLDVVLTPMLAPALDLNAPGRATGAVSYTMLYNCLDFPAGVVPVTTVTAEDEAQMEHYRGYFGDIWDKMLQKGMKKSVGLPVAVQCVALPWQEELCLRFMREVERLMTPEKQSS
# Experiment: FAAH Substrate Evaluation (formation of acid metabolite from amide prodrug)
# Type: biochemical
# Conditions: 0.5 ng/μL rhFAAH, 1 μM test compound, Tris-EDTA buffer pH 8.0, 0.1% BSA, room temperature, 0-60 minutes, LC-MS/MS
# Experimental: Purified recombinant human FAAH (rhFAAH) was purchased from Cayman Chemical (Ann Arbor, MI, USA). The total volume for each incubation was 400 μL containing a final 0.5 ng/μL rhFAAH, 1 μM test compound, 1.25% ethanol or 1 μM PF-3845 (FAAH inhibitor), and 0.1% bovine serum albumin in Tris-EDTA buffer at pH 8.0). The positive control was LL-341001. The incubation was conducted at the room temperature. At 0, 5, 15, 30 and 60 minutes, an aliquot of 30 μL reaction mixtures was removed and mixed with 300 μL acetonitrile containing 5 ng/mL terfenadine and 10 ng/ml tolbutamide as internal standards to quench the reaction. The resulting mixture was centrifuged at 4000 rpm, 4° C. for 15 minutes, and 100 μL supernatant was ready for LC-MS/MS analysis to measure the formation of acid metabolite.
# Acquity Ultra Performance LC system from Waters was used for sample analysis. The chromatography was performed on a reverse phase Kinetex 2.6 μm C18 column, 2.1×30 mm, 100 Å. The mobile phase A comprised of 0.1% formic acid in water and mobile phase B comprised of 0.1% formic acid in acetonitrile with a 2-min run time at the flow rate of 0.8 mL/min for the acid metabolite from positive control or a 1.5 min run time at the flow rate of 0.9 mL/min for the acid metabolite of test compounds. The mass spectrometer (API-5500 and API Q Trap 4000 Applied Biosystems/MDS SCIEX Instruments, Framingham, MA, USA) was operated under ESI positive or negative ion MRM mode.
# The formation of acid metabolite was monitored and quantified using one calibration point of 1 μM. The observed rate constant (ke) for the acid metabolite formation was calculated by plotting the metabolite concentration versus time of incubation with the slope being ke and is shown in Table 1.
row,Compound,ke (observed rate constant for the acid metabolite formation)
1,"C[C@@H](CO)NC(=O)C1CN(CC2=Cc3ccc(OCCCC(F)(F)F)cc3C[C@@H]2C)C1 [Compound 2, N—((S)-1-hydroxypropan-2-yl)-1-(((S)-3-methyl-6-(4,4,4-trifluorobutoxy)-3,4-dihydronaphthalen-2-yl)methyl)azetidine-3-carboxamide]",B (ke is less than 1.0 and more than 0)
2,"C[C@H]1Cc2cc(OCCCC(F)(F)F)ccc2C=C1CN1CC(C(=O)Nc2cncnc2)C1 [Compound 3, (S)-1-((3-methyl-6-(4,4,4-trifluorobutoxy)-3,4-dihydronaphthalen-2-yl)methyl)-N-(pyrimidin-5-yl)azetidine-3-carboxamide]",A (ke is more than or equal to 1.0)
3,"C[C@H]1Cc2cc(OCCCC(F)(F)F)ccc2C=C1CN1CC(C(=O)Nc2ccnnc2)C1 [Compound 4, (S)-1-((3-methyl-6-(4,4,4-trifluorobutoxy)-3,4-dihydronaphthalen-2-yl)methyl)-N-(pyridazin-4-yl)azetidine-3-carboxamide]",A (ke is more than or equal to 1.0)
4,"COCCNC(=O)C1CN(CC2=Cc3ccc(OCCCC(F)(F)F)cc3C[C@@H]2C)C1 [Compound 5, (S)—N-(2-methoxyethyl)-1-((3-methyl-6-(4,4,4-trifluorobutoxy)-3,4-dihydronaphthalen-2-yl)methyl)azetidine-3-carboxamide]",A (ke is more than or equal to 1.0)
5,"C[C@H]1Cc2cc(OCCCC(F)(F)F)ccc2C=C1CN1CC(C(=O)NCC(C)(C)C)C1 [Compound 6, (S)-1-((3-methyl-6-(4,4,4-trifluorobutoxy)-3,4-dihydronaphthalen-2-yl)methyl)-N-neopentylazetidine-3-carboxamide]",B (ke is less than 1.0 and more than 0)
6,"CC(C)CNC(=O)C1CN(CC2=Cc3ccc(OCCCC(F)(F)F)cc3C[C@@H]2C)C1 [Compound 7, (S)—N-isobutyl-1-((3-methyl-6-(4,4,4-trifluorobutoxy)-3,4-dihydronaphthalen-2-yl)methyl)azetidine-3-carboxamide]",A (ke is more than or equal to 1.0)
7,"CC[C@@H](C)NC(=O)C1CN(CC2=Cc3ccc(OCCCC(F)(F)F)cc3C[C@@H]2C)C1 [Compound 8, N—((R)-sec-butyl)-1-(((S)-3-methyl-6-(4,4,4-trifluorobutoxy)-3,4-dihydronaphthalen-2-yl)methyl)azetidine-3-carboxamide]",A (ke is more than or equal to 1.0)
8,"C[C@H]1Cc2cc(OCCCC(F)(F)F)ccc2C=C1CN1CC(C(=O)N(C)CC(C)(C)C)C1 [Compound 9, (S)—N-methyl-1-((3-methyl-6-(4,4,4-trifluorobutoxy)-3,4-dihydronaphthalen-2-yl)methyl)-N-neopentylazetidine-3-carboxamide]",C (ke is 0)
9,"CCCNC(=O)C1CN(CC2=Cc3ccc(OCCCC(F)(F)F)cc3C[C@@H]2C)C1 [Compound 10, (S)-1-((3-methyl-6-(4,4,4-trifluorobutoxy)-3,4-dihydronaphthalen-2-yl)methyl)-N-propylazetidine-3-carboxamide]",A (ke is more than or equal to 1.0)
10,"C[C@H]1Cc2cc(OCCCC(F)(F)F)ccc2C=C1CN1CC(C(=O)N(C)C)C1 [Compound 11, (S)—N,N-dimethyl-1-((3-methyl-6-(4,4,4-trifluorobutoxy)-3,4-dihydronaphthalen-2-yl)methyl)azetidine-3-carboxamide]",B (ke is less than 1.0 and more than 0)
11,"CNC(=O)C1CN(CC2=Cc3ccc(OCCCC(F)(F)F)cc3C[C@@H]2C)C1 [Compound 12, (S)—N-methyl-1-((3-methyl-6-(4,4,4-trifluorobutoxy)-3,4-dihydronaphthalen-2-yl)methyl)azetidine-3-carboxamide]",B (ke is less than 1.0 and more than 0)
12,"C[C@H]1Cc2cc(OCCCC(F)(F)F)ccc2C=C1CN1CC(C(=O)Nc2cccnc2)C1 [Compound 13, (S)-1-((3-methyl-6-(4,4,4-trifluorobutoxy)-3,4-dihydronaphthalen-2-yl)methyl)-N-(pyridin-3-yl)azetidine-3-carboxamide]",A (ke is more than or equal to 1.0)
13,"C[C@H](CO)NC(=O)C1CN(CC2=Cc3ccc(OCCCC(F)(F)F)cc3C[C@@H]2C)C1 [Compound 14, N—((R)-1-hydroxypropan-2-yl)-1-(((S)-3-methyl-6-(4,4,4-trifluorobutoxy)-3,4-dihydronaphthalen-2-yl)methyl)azetidine-3-carboxamide]",B (ke is less than 1.0 and more than 0)
14,"C[C@H](O)CNC(=O)C1CN(CC2=Cc3ccc(OCCCC(F)(F)F)cc3C[C@@H]2C)C1 [Compound 15, N—((S)-2-hydroxypropyl)-1-(((S)-3-methyl-6-(4,4,4-trifluorobutoxy)-3,4-dihydronaphthalen-2-yl)methyl)azetidine-3-carboxamide]",B (ke is less than 1.0 and more than 0)
15,"CCCN(C)C(=O)C1CN(CC2=Cc3ccc(OCCCC(F)(F)F)cc3C[C@@H]2C)C1 [Compound 16, (S)—N-methyl-1-((3-methyl-6-(4,4,4-trifluorobutoxy)-3,4-dihydronaphthalen-2-yl)methyl)-N-propylazetidine-3-carboxamide]",C (ke is 0)
16,"CC[C@H](C)NC(=O)C1CN(CC2=Cc3ccc(OCCCC(F)(F)F)cc3C[C@@H]2C)C1 [Compound 17, N—((S)-sec-butyl)-1-(((S)-3-methyl-6-(4,4,4-trifluorobutoxy)-3,4-dihydronaphthalen-2-yl)methyl)azetidine-3-carboxamide]",B (ke is less than 1.0 and more than 0)
17,"COC[C@H](C)NC(=O)C1CN(CC2=Cc3ccc(OCCCC(F)(F)F)cc3C[C@@H]2C)C1 [Compound 18, N—((S)-1-methoxypropan-2-yl)-1-(((S)-3-methyl-6-(4,4,4-trifluorobutoxy)-3,4-dihydronaphthalen-2-yl)methyl)azetidine-3-carboxamide]",B (ke is less than 1.0 and more than 0)
18,"C[C@H]1Cc2cc(OCCCC(F)(F)F)ccc2C=C1CN1CC(C(=O)NCC2CC2)C1 [Compound 19, (S)—N-(cyclopropylmethyl)-1-((3-methyl-6-(4,4,4-trifluorobutoxy)-3,4-dihydronaphthalen-2-yl)methyl)azetidine-3-carboxamide]",A (ke is more than or equal to 1.0)
19,"C[C@H]1Cc2cc(OCCCC(F)(F)F)ccc2C=C1CN1CC(C(=O)NC2CC2)C1 [Compound 20, (S)—N-cyclopropyl-1-((3-methyl-6-(4,4,4-trifluorobutoxy)-3,4-dihydronaphthalen-2-yl)methyl)azetidine-3-carboxamide]",A (ke is more than or equal to 1.0)
20,"C[C@@H](O)CNC(=O)C1CN(CC2=Cc3ccc(OCCCC(F)(F)F)cc3C[C@@H]2C)C1 [Compound 21, N—((R)-2-hydroxypropyl)-1-(((S)-3-methyl-6-(4,4,4-trifluorobutoxy)-3,4-dihydronaphthalen-2-yl)methyl)azetidine-3-carboxamide]",B (ke is less than 1.0 and more than 0)
21,"C[C@H]1Cc2cc(OCCCC(F)(F)F)ccc2C=C1CN1CC(C(=O)NCCCF)C1 [Compound 22, (S)-N-(3-fluoropropyl)-1-((3-methyl-6-(4,4,4-trifluorobutoxy)-3,4-dihydro-naphthalen-2-yl)methyl)azetidine-3-carboxamide]",B (ke is less than 1.0 and more than 0)
